Experimental data from US12558428B2, “Heterobifunctional compounds and their use in treating disease” (Halda Therapeutics OpCo, Inc., priority 2024, dated 2026).
Where two headings read alike, the source gives them in different places.

Columns and labels:
Assay type in all cases: cell-based
[1] = system: T-Rex 293 cells lacking increased expression of estrogen receptor alpha protein; experiment: Cellular growth inhibition assay, T-Rex 293 cells, (−) doxycycline; settings: T-REx-293, 72 h, 72 hours
Outline: (§1)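 Cells of an inducible ERα-expressing T-Rex 293 clone are seeded in charcoal-dextran FBS medium with or without 3 ng/mL doxycycline, then treated after 24 h with compound dilutions (0.5% DMSO) for 72 h. Growth inhibition is measured by CellTiter-Glo luminescence and expressed as GI50.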

[2] = system: T-Rex 293 cells having increased expression of estrogen receptor alpha protein; experiment: Cellular growth inhibition assay, T-Rex 293 cells, (+) doxycycline; settings: T-REx-293, 72 h, 72 hours
Outline: as §1

[3] = system: MCF7 cells (ATCC #HTB-22); experiment: Cellular growth inhibition assay, MCF7 cells purchased from ATCC; settings: Homo sapiens, MCF7, 144 h, Table 8-A; MCF7 cells purchased from ATCC; six days; CellTiter-Glo; read-out: GI50
Outline: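 GI50 values come from a four-parameter fit of CellTiter-Glo 2.0 luminescence after six days of compound exposure at 37° C. Seeding density depended on the source: 225 cells/well for ECACC MCF7, 1,500 for ATCC. Medium was RPMI 1640 with 10% FBS and 0.2 U/ml insulin.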

[4] = Table 7-A, T-Rex 293 cells without doxycycline (lacking increased ERα expression), CellTiter-Glo, read-out: (−) Dox GI50
[5] = Table 7-A, T-Rex 293 cells with doxycycline (increased ERα expression), CellTiter-Glo, read-out: (+) Dox GI50

SMILES	GI50 [3] [nM]	GI50 [1, 4] [nM]	GI50 [2, 5] [nM]	GI50 ([1]; T-Rex 293 cells without doxycycline, CellTiter-Glo 2.0, read-out: (−) Dox TRex ERa (GI50)) [nM]	GI50 ([2]; T-Rex 293 cells with doxycycline-induced ERα expression, CellTiter-Glo 2.0, read-out: (+) Dox TRex ERa (GI50)) [nM]
Cc1sc2c(c1C)C(c1ccc(CC(=O)N3CCC4(CCN(c5ccc(C6=C(c7ccc(Cl)cc7Cl)CCCc7cc(C(=O)O)ccc76)cc5)CC4)C3)cc1)=N[C@@H](C)c1nnc(C)n1-2 [IV-12]	50 to 500	500 to 2500	50 to 500	–	–
Cc1sc2c(c1C)C(c1ccc(N3CCC(O)(CN4CCN(c5cc(F)c([C@@H]6c7ccc(O)cc7CC[C@@H]6c6ccccc6)c(F)c5)CC4)CC3)cc1)=N[C@@H](C)c1nnc(C)n1-2 [III-186]	< 50	500 to 2500	< 50	–	–
Cc1sc2c(c1C)C(c1ccc(N3CCC(O)(CN4CCN(c5ccc([C@H]6c7ccc(C(=O)O)cc7CC[C@H]6c6ccccc6)cc5)CC4)CC3)cc1)=N[C@H](Cc1ncco1)c1nnc(C)n1-2 [III-198]	> 2500	> 2500	> 2500	–	–
Cc1sc2c(c1C)C(c1ccc(N3CCC(O)(CN4CCN(c5ccc(C6=C(c7ccccc7)CCCc7cc(C(=O)O)ccc76)c(F)c5)CC4)CC3)cc1)=N[C@@H](C)c1nnc(C)n1-2 [IV-28]	< 50	500 to 2500	< 50	–	–
Cc1sc2c(c1C)C(c1ccc(N3CCC(O)(CN4CCN(c5ccc(C6=C(c7ccccc7)CCCc7cc(C(=O)O)ccc76)cc5F)CC4)CC3)cc1)=N[C@@H](C)c1nnc(C)n1-2 [IV-33]	< 50	500 to 2500	< 50	–	–
Cc1sc2c(c1C)C(c1ccc(NCC3CC4(C3)CN(CCOc3ccc([C@@H]5c6ccc(O)cc6CC[C@@H]5c5ccccc5)cc3)C4)cc1)=NC(Cc1ncco1)c1nnc(C)n1-2 (stereo partly drawn) [III-51]	< 50	50 to 500	< 50	–	–
CCN(CCOCCOCCOCCOCCNC(=O)C[C@@H]1N=C(c2ccc(Cl)cc2)c2c(sc(C)c2C)-n2c(C)nnc21)CCOc1ccc(C(=O)c2c(-c3ccc(O)cc3)sc3cc(O)ccc23)cc1 [I-4, (S)-2-(4-(4-chlorophenyl)-2,3,9-trimethyl-6H-thieno[3,2-f][1,2,4]triazolo[4,3-a][1,4]diazepin-6-yl)-N-(3-ethyl-1-(4-(6-hydroxy-2-(4-hydroxyphenyl)benzo[b]thiophene-3-carbonyl)phenoxy)-6,9,12,15-tetraoxa-3-azaheptadecan-17-yl) acetamide]	50 to 500	–	–	500 to 2500	< 50
CC1=C(c2c(F)cc(F)cc2F)[C@H](c2ccc(N3CC(CN4CCN(CC5CN(c6ccc(C7=N[C@@H](C)c8nnc(C)n8-c8sc(C)c(C)c87)cc6)C5)CC4)C3)cc2)Oc2ccc(O)cc21 [V-35]	< 50	50 to 500	< 50	–	–
Cc1sc2c(c1C)C(c1ccc(N3CCC(O)(CN4CCN(c5ccc(C6=C(c7ccc(Cl)cc7Cl)CCCc7cc(C(=O)O)ccc76)cc5)CC4)CC3)cc1)=N[C@@H](C)c1nnc(C)n1-2 [IV-9]	< 50	500 to 2500	< 50	–	–
Cc1sc2c(c1C)C(c1ccc(N3CCC(O)(CN4CCN(c5ccc([C@H]6c7ccc(C(=O)O)cc7CC[C@H]6c6ccc(F)cc6F)cc5)CC4)CC3)cc1)=N[C@@H](C)c1nnc(C)n1-2 [III-205]	50 to 500	500 to 2500	50 to 500	–	–
Cc1sc2c(c1C)C(c1ccc(N3CCC(O)(CN4CCN(c5ccc([C@@H]6c7ccc(C(=O)O)cc7CC[C@@H]6c6ccccc6)cc5)CC4)CC3)cc1)=N[C@@H](Cc1ncco1)c1nnc(C)n1-2 [III-200]	< 50	50 to 500	< 50	–	–
Cc1sc2c(c1C)C(c1ccc(N3CCC(O)(CN4CCN(c5ccc([C@H]6c7ccc(O)cc7CC[C@H]6c6ccc(F)cc6F)cc5)CC4)CC3)cc1)=N[C@H](Cc1ncco1)c1nnc(C)n1-2 [III-192]	> 2500	> 2500	> 2500	–	–
CC1=C(c2c(F)cc(F)cc2F)[C@H](c2ccc(OCCN3CCC[C@]4(CCN(c5ccc(C6=N[C@@H](C)c7nnc(C)n7-c7sc(C)c(C)c76)cc5)C4)C3)cc2)Oc2ccc(O)cc21 [V-7]	50 to 500	50 to 500	< 50	–	–
CC1=C(c2c(F)cc(F)cc2F)[C@H](c2ccc(OCCN3CCCC4(CCN(c5ccc(C6=N[C@@H](C)c7nnc(C)n7-c7sc(C)c(C)c76)cc5)CC4)C3)cc2)Oc2ccc(O)cc21 [V-5]	50 to 500	500 to 2500	50 to 500	–	–
Cc1sc2c(c1C)C(c1ccc(N3CCC(O)(CN4CCN(c5cc(F)c([C@H]6c7ccc(O)cc7CC[C@H]6c6ccc(F)cc6)cc5F)CC4)CC3)cc1)=N[C@@H](C)c1nnc(C)n1-2 [III-257]	50 to 500	500 to 2500	50 to 500	–	–
Cc1sc2c(c1C)C(c1ccc(N3CCN(CCN4CC[C@H](Oc5ccc(C6=C(c7ccc(Cl)cc7Cl)CCCc7cc(C(=O)O)ccc76)cc5)C4)CC3)cc1)=N[C@@H](C)c1nnc(C)n1-2 [IV-2]	50 to 500	500 to 2500	50 to 500	–	–
Cc1sc2c(c1C)C(c1ccc(N3CCC(O)(CN4CCN(c5ccc([C@@H]6c7ccc(O)cc7CC[C@@H]6c6ccc(F)cc6F)cc5)CC4)CC3)cc1)=N[C@H](Cc1ncco1)c1nnc(C)n1-2 [III-193]	50 to 500	500 to 2500	50 to 500	–	–
CC1=C(c2c(F)cc(F)cc2F)[C@H](c2ccc(N3CCN(CC4CCN(c5ccc(C6=N[C@@H](C)c7nnc(C)n7-c7sc(C)c(C)c76)cc5)CC4)CC3)cc2)Oc2ccc(O)cc21 [V-23]	50 to 500	500 to 2500	< 50	–	–
Cc1sc2c(c1C)C(c1ccc(N3CCC(O)(CN4CCC(c5cc(F)c([C@@H]6c7ccc(O)cc7CC[C@@H]6c6ccc(F)cc6)c(F)c5)CC4)CC3)cc1)=N[C@@H](C)c1nnc(C)n1-2 (single isomer, unassigned) [III-245]	< 50	500 to 2500	< 50	–	–

More lines, main results first:

GI50 [3] [nM]	SMILES	GI50 [1, 4] [nM]	GI50 [2, 5] [nM]	GI50 ([1]; T-Rex 293 cells without doxycycline, CellTiter-Glo 2.0, read-out: (−) Dox TRex ERa (GI50)) [nM]	GI50 ([2]; T-Rex 293 cells with doxycycline-induced ERα expression, CellTiter-Glo 2.0, read-out: (+) Dox TRex ERa (GI50)) [nM]
50 to 500	Cc1sc2c(c1C)C(c1ccc(OCC3CN(CC4CCN(c5ccc([C@H]6c7ccc(O)cc7CC[C@H]6c6ccccc6)cc5)CC4)C3)cc1)=N[C@@H](C)c1nnc(C)n1-2 [III-69]	50 to 500	50 to 500	–	–
50 to 500	Cc1sc2c(c1C)C(c1ccc(N3CC4(CCC(CN5CCN(c6ccc([C@@H]7c8ccc(O)cc8CC[C@@H]7c7ccccc7)cc6)CC5)CC4)C3)cc1)=N[C@@H](C)c1nnc(C)n1-2 [III-230]	> 2500	< 50	–	–
< 50	Cc1sc2c(c1C)C(c1ccc(N3CCC(O)(CN4CCC(c5ccc([C@@H]6c7ccc(O)cc7CC[C@@H]6c6ccccc6)cc5)CC4)CC3)cc1)=N[C@@H](Cc1ncco1)c1nnc(C)n1-2 [III-140]	500 to 2500	50 to 500	–	–
50 to 500	Cc1sc2c(c1C)C(c1ccc(C3CN(CC4(O)CCN(CC5CN(c6ccc([C@@H]7c8ccc(O)cc8CC[C@@H]7c7ccccc7)cc6)C5)CC4)C3)cc1)=N[C@@H](Cc1ncco1)c1nnc(C)n1-2 [III-169]	50 to 500	< 50	–	–
500 to 2500	Cc1sc2c(c1C)C(c1ccc(CC3CC4(CCCN(c5ccc([C@@H]6c7ccc(O)cc7CC[C@@H]6c6ccccc6)cc5)C4)C3)cc1)=N[C@@H](C)c1nnc(C)n1-2 (stereo partly drawn) [I-44]	500 to 2500	50 to 500	–	–
50 to 500	Cc1sc2c(c1C)C(c1ccc(N3CC(C[C@H]4CC[C@H](CN5CC(c6ccc([C@@H]7c8ccc(O)cc8CC[C@@H]7c7ccccc7)cc6)C5)CC4)C3)cc1)=N[C@@H](C)c1nnc(C)n1-2 [III-233]	500 to 2500	< 50	–	–
50 to 500	Cc1sc2c(c1C)C(c1ccc(N3CCN(CC4CCN(c5ccc([C@H]6c7ccc(O)cc7CC[C@H]6c6ccccc6)cc5)CC4)CC3)cc1)=N[C@@H](C)c1nnc(C)n1-2 (single isomer, unassigned) [I-37a]	500 to 2500	50 to 500	–	–
50 to 500	Cc1sc2c(c1C)C(c1ccc(N3CC4(CCN(CC5CCN(c6ccc([C@@H]7c8ccc(O)cc8CC[C@@H]7c7ccccc7)cc6)CC5)CC4)C3)cc1)=N[C@@H](C)c1nnc(C)n1-2 [III-12]	500 to 2500	< 50	–	–
50 to 500	Cc1sc2c(c1C)C(c1ccc(NCC3CCCCN3CCOc3ccc([C@@H]4c5ccc(O)cc5CC[C@@H]4c4ccccc4)cc3)cc1)=NC(Cc1ncco1)c1nnc(C)n1-2 (stereo partly drawn) [III-56]	50 to 500	50 to 500	–	–
< 50	Cc1sc2c(c1C)C(c1ccc(N3CC4(C3)CC(O)(CN3CCN(c5ccc([C@@H]6c7ccc(O)cc7CC[C@@H]6c6ccccc6)cc5)CC3)C4)cc1)=N[C@@H](C)c1nnc(C)n1-2 [III-268]	500 to 2500	< 50	–	–
< 50	Cc1sc2c(c1C)C(c1ccc(N3CC(CC4(O)CCN(CC5CN(c6ccc([C@@H]7c8ccc(O)cc8CC[C@@H]7c7ccc(F)cc7)cc6)C5)CC4)C3)cc1)=N[C@@H](C)c1nnc(C)n1-2 [III-239]	50 to 500	< 50	–	–
50 to 500	Cc1sc2c(c1C)C(c1ccc(N3CC(CN4CCN(c5ccc([C@@H]6c7ccc(O)cc7CC[C@@H]6c6ccccc6)cc5)CC4)C3)cc1)=N[C@@H](C)c1nnc(C)n1-2 [III-89]	500 to 2500	< 50	–	–
50 to 500	Cc1sc2c(c1C)C(c1ccc(N3CCC(CN4CCN(c5ccc([C@H]6c7ccc(O)cc7CC[C@H]6c6ccccc6)cn5)CC4)CC3)cc1)=N[C@@H](Cc1ncco1)c1nnc(C)n1-2 [III-125]	50 to 500	< 50	–	–
